# Reference: patent US7560466B2, “Methods of treating or preventing autoimmune diseases with 2,4-pyrimidinediamine compounds” (Rigel Pharmaceuticals, Inc., priority 2003, dated 2009)
# Like-named read-outs stand apart in the source and are kept apart here.
# System: cultured human mast cells (CHMC), IgE-induced degranulation
# Assay: CHMC low cell density IgE activation: tryptase assay
# Format: cell-based
# Method: Inhibition of degranulation was measured at both low and high cell density by quantifying the release of the granule specific factors tryptase, histamine and hexosaminidase. Inhibition of release and/or synthesis of lipid mediators was assessed by measuring the release of leukotriene LTC4 and inhibition of release and/or synthesis of cytokines was monitored by quantifying TNF-α, IL-6 and IL-13. Tryptase and hexosaminidase were quantified using fluorogenic substrates as described in their respective examples. […] The protocols of the various assays are provided below.
# A second phase is performed to convert the expanded CD34-negative progenitor cells into differentiated mucosal mast cells. These mucosal cultured human mast cells (“CHMC”) are derived from CD34+ cells isolated from umbilical cord blood and treated to form a proliferated population of CD34-negative progenitor cells, as described above. […] Also, the cytokine composition of the medium was modified such that it contained SCF (200 ng/mL) and recombinant human IL-6 (200 ng/mL; Peprotech, Catalog No. 200-06 reconstituted to 100 ug/mL in sterile 10 mM acetic acid) (“CM/SCF/IL-6 medium”).
# Pellet CHMC cells (980 rpm, 10 min) and resuspend in pre-warmed MT. Add 65 ul of cells to each 96-well plate. Depending on the degranulation activity for each particular CHMC donor, load 1000-1500 cells/well. Mix four times followed by a 1 hr incubation at 37° C. […] Stimulate cells by adding 25 ul of 6× anti-IgE solution to the appropriate plates. Add 25 ul MT to un-stimulated control wells. Mix twice following addition of the anti-IgE. Incubate at 37° C. for 30 minutes. […] Spin plates at 1000 rpm for 10 min to pellet cells. Transfer 25 ul of supernatant to a 96-well black bottom plate and add 100 ul of freshly diluted tryptase substrate solution to each well. Incubate plates at room temperature for 30 min.
# In Table 1, all reported values are IC50s (in μM). […] In Table 1, all reported values are IC50s (in μM).
# [1] = CHMC low cell density, 3pt, read-out: LD Tryptase, CHMC, IgE, 3pt
# [2] = CHMC low cell density, 8pt, read-out: LD Tryptase, CHMC, IgE, 8pt
# [3] = low cell density CHMC, 8-point, read-out: LD Tryptase, CHMC, IgE, 8pt
# [4] = low cell density CHMC, 3pt, read-out: LD Tryptase, CHMC, IgE, 3pt
# [5] = low cell density CHMC, 8pt, read-out: LD Tryptase, CHMC, IgE, 8pt
IC50 [1] [µM],IC50 [2] [µM],Compound,also measured
< 10,< 10,"Cc1nc2cc(Nc3ncc(F)c(Nc4ccc5c(n4)NC(=O)C(C)(C)O5)n3)ccc2n1CCCNS(C)(=O)=O [Compound 964, N4-(2,2-Dimethyl-3-oxo-4H-5-pyrido[1,4]oxazin-6-yl)-5-fluoro-N2-[2-methyl-1-[3-(N-methylsulfonylamino)propyl]benzimidazol-5-yl]-2,4-pyrimidinediamine]",–
–,< 10,"N4-(2,2-Dimethyl-3-oxo-4H-5-pyrid[1,4]oxazin-6-yl)-N2-(1-methyl-2-trifluoromethylbenzimidazol-5-yl)-2,4-pyrimidinediamine [Compound 915]",–
< 10,> 10,"Cc1cc(C)cc(Nc2ncc(F)c(Nc3ccc4c(c3)OC(F)(F)C(F)(F)O4)n2)c1 [Compound 362, N2-(3,5-Dimethyphenyl)-5-fluoro-N4-[3,4-(tetrafluoroethylenedioxy)phenyl]-2,4-pyrimidinediamine]",–
–,< 10,"(S)-5-Fluoro-[1-(2-hydroxymethyl)-2-trifluoromethylbenzimidazol-5-yl]-N4-(2-methyl-3-oxo-2H,4H-benz[1,4]oxazin-6-yl)-2,4-pyrimidinediamine [Compound 923]",–
< 10,–,"Cc1cc(Nc2ncc(F)c(Nc3ccc4c(c3)OC(F)(F)C(F)(F)O4)n2)cc(C(F)(F)F)c1 [Compound 366, 5-Fluoro-N2-(3-methyl-5-trifluoromethyl)-N4-[3,4-(tetrafluoroethylenedioxy)phenyl]-2,4-pyrimidinediamine]",–
–,< 10,"COc1cc(Nc2ncc(F)c(Nc3ccc4c(n3)N(C)C(=O)C(C)(C)O4)n2)cc(OC)c1OC [Compound 689, 5-Fluoro-N4-(3-oxo-2,2,4-trimethyl-5-pyrid[1,4]oxazin-6-yl)-N2-(3,4,5-trimethoxyphenyl)-2,4-pyrimidinediamine]",–
< 10,–,"CCn1c(C)nc2cc(Nc3ncc(F)c(Nc4ccc5c(n4)NC(=O)C(C)(C)O5)n3)ccc21 [Compound 936, N4-(2,2-Dimethyl-3-oxo-4H-5-pyrido[1,4]oxazin-6-yl)-N2-(1-ethyl-2-methylbenzimidazol-5-yl)-5-fluoro-2,4-pyrimidinediamine]",–
< 10,< 10,"CC1(C)Oc2ccc(Nc3nc(Nc4ccc5c(cnn5CCCN5C(=O)CCC5=O)c4)ncc3F)nc2NC1=O [Compound 857, N4-(2,2-Dimethyl-3-oxo-4H-5-pyrid[1,4]oxazin-6-yl)-5-fluoro-N2-[1-[3-(N-succinimidopropyl)]indazol-5-yl]-2,4-pyrimidinediamine]",–

# More lines, now with the values behind:
Compound,IC50 [1] [µM],IC50 [2] [µM],also measured
"Cc1cc(Nc2ncc(F)c(Nc3ccc4c(n3)NC(=O)CO4)n2)cc(C)c1O [Compound 1069, N2-(3,5-Dimethyl-4-hydroxyphenyl)-5-fluoro-N4-(3-oxo-2H,4H-5-pyrid[1,4]oxazin-6-yl)-2,4-pyrimidinediamine]",–,–,IC50 [3]: < 10 µM
C[C@H]1Oc2ccc(Nc3nc(Nc4cccc(CN)c4)ncc3F)cc2NC1=O [Compound 1280],–,–,IC50 [4]: < 10 µM; IC50 [5]: < 10 µM
"CC1Sc2ccc(Nc3nc(Cl)ncc3F)cc2NC1=O (racemic) [Compound 314, racemic-N2-Chloro-5-fluoro-N4-(2-methyl-3-oxo-2H,4H-benzo[1,4]thiazin-6-yl)-4-pyrimidinea mine]",–,–,IC50 [4]: < 10 µM
"CN1C(=O)C(C)(C)Oc2ccc(Nc3ncc(F)c(Nc4ccc5c(n4)N(C)C(=O)C(C)(C)O5)n3)nc21 [Compound 687, N2,N4-Bis(3-oxo-2,2,4-trimethyl-5-pyrid[1,4]oxazin-6-yl)-5-fluoro-2,4-pyrimidinediamine]",< 10,–,–
"CCc1ccc(S(=O)(=O)O)cc1.COc1cc(Nc2ncc(F)c(Nc3ccc4c(n3)NC(=O)C(C)(C)O4)n2)cc(OC)c1OC [Compound 679, N4-(2,2-Dimethyl-3-oxo-4H-5-pyrid[1,4]oxazin-6-yl)-5-fluoro-N2-(3,4,5-trimethoxyphenyl)-2,4-pyrimidinediamine p-Ethylbenzenesulfonic Acid Salt]",< 10,< 10,–
"CC1(C)Oc2ccc(Nc3nc(Nc4ccc5c(cnn5CCCNS(=O)(=O)C(F)(F)F)c4)ncc3F)nc2NC1=O [Compound 844, N4-(2,2-Dimethyl-3-oxo-4H-5-pyrid[1,4]oxazin-6-yl)-5-fluoro-N2-[1-[3-(N-trifluoromethylsulfonylamino)propyl]indazol-5-yl]-2,4-pyrimidinediamine]",–,> 10,–
"COCCCn1ncc2ccc(Nc3ncc(F)c(Nc4ccc5c(n4)NC(=O)C(C)(C)O5)n3)cc21 [Compound 839, N4-(2,2-Dimethyl-3-oxo-4H-5-pyrid[1,4]oxazin-6-yl)-5-fluoro-N2-[1-(3-methoxypropyl)indazol-6-yl]-2,4-pyrimidinediamine]",< 10,< 10,–
"C[C@@H]1Oc2ccc(Nc3nc(Nc4ccc5c(cnn5CCCN5C(=O)c6ccccc6C5=O)c4)ncc3F)cc2NC1=O [Compound 818, (S)-5-Fluoro-N4-(2-methyl-3-oxo-2H,4H-benz[1,4]oxazin-6-yl)-N2-[1-[3-(N-phthalimidopropyl)]indazol-5-yl]-2,4-pyrimidinediamine]",–,< 10,–
"COC(=O)CN1C(=O)C(C)(C)Oc2ccc(N(CC(=O)OC)c3nc(Nc4cc(OC)c(OC)c(OC)c4)ncc3F)nc21 [Compound 691, N4-(2,2-Dimethyl-4-carbomethoxymethyl-3-oxo-5-pyrid[1,4]oxazin-6-yl)-5-fluoro-N4-carbomethoxymethyl-N2-(3,4,5-trimethoxyphenyl)-2,4-pyrimidinediamine]",< 10,–,–
"C[C@@H]1Oc2ccc(Nc3nc(Nc4ccc5c(c4)nc(N4CCOCC4)n5C)ncc3F)cc2NC1=O [Compound 945, (S)-5-Fluoro-N2-[1-methyl-2-(4-morpholino)benzimidazol-5-yl]-N4-(2-methyl-3-oxo-2H,4H-benz[1,4]oxazin-6-yl)-2,4-pyrimidinediamine]",< 10,< 10,–
"COc1cc(Nc2ncc(F)c(Nc3ccc4c(c3)NC(=O)CS4(=O)=O)n2)cc(OC)c1OC [Compound 306, 5-Fluoro-N2-(3,4,5-triimethoxylphenyl)-N4-(1,1,3-trioxo-2H,4H-benzo[1,4]thiazin-6-yl)-2,4-pyrimidinediamine]",–,–,IC50 [5]: < 10 µM
"Fc1cnc(Nc2cccc(N3CCOCC3)c2)nc1Nc1ccc2c(n1)NCCO2 [Compound 1136, N4-(3,4-Dihydro-2H,4H-5-pyrid[1,4]oxazin-6-yl)-5-fluoro-N2-(3-morpholinophenyl)-2,4-pyrimidinediamine]",–,–,"IC50 (low cell density CHMC, 3-point, read-out: LD Tryptase, CHMC, IgE, 3pt): < 10 µM; IC50 [3]: < 10 µM"
"CN1CCN(c2cccc(Nc3ncc(F)c(Nc4ccc5c(n4)NC(=O)CO5)n3)c2)CC1 [Compound 1074, 5-Fluoro-N2-[3-(4-methylpiperazion)phenyl]-N4-(3-oxo-2H,4H-5-pyrid[1,4]oxazin-6-yl)-2,4-pyrimidinediamine]",–,–,IC50 [3]: < 10 µM
"C[C@@H]1Oc2ccc(Nc3nc(Nc4ccc5c(cnn5CCCN5C(=O)CCC5=O)c4)ncc3F)cc2NC1=O [Compound 856, (S)-5-Fluoro-N4-(2-methyl-3-oxo-2H,4H-benz[1,4]oxazin-6-yl)-N2-[1-[3-(N-succinimidopropyl)]indazol-5-yl]-2,4-pyrimidinediamine]",< 10,< 10,–
"COc1c(C)cc(Nc2ncc(F)c(Nc3ccc4c(c3)NCC(C)(C)O4)n2)cc1Cl [Compound 1001, N2-(3-Chloro-4-methoxy-5-methylphenyl)-N4-(3,4-dihydro-2,2-dimethyl-4H-benz[1,4]oxazin-6-yl)-5-fluoro-2,4-pyrimidinediamine]",–,< 10,–
"CNC(=O)n1ccc2ccc(Nc3ncc(F)c(Nc4ccc5c(c4)NC(=O)C(C)(C)O5)n3)cc21 [Compound 347, N4-(2,2-Dimethyl-3-oxo-4H-benz[1,4]oxazin-6-yl)-N2-[1-(N-methylaminocarbony)lindol-6-yl)-5-fluoro-2,4-pyrimidinediamine]",–,–,IC50 [4]: < 10 µM
C[C@@H]1Oc2ccc(Nc3nc(Nc4ccc(C(=O)N=CC(=O)O)cc4)ncc3F)cc2NC1=O [Compound 1264],–,–,"IC50 (Homo sapiens, Mast cell, low cell density CHMC, 3pt, read-out: LD Tryptase, CHMC, IgE, 3pt): > 10 µM"
"Fc1cnc(Nc2cccc(-c3cnco3)c2)nc1Nc1ccc2c(n1)NCCO2 [Compound 1132, N4-(3,4-Dihydro-2H,4H-5-pyrid[1,4]oxazin-6-yl)-5-fluoro-N2-[3-(oxazol-5-yl)phenyl]-2,4-pyrimidinediamine]",–,–,IC50 [3]: < 10 µM
"CCOC(=O)N1CCN(c2cccc(Nc3ncc(F)c(Nc4ccc5c(n4)NC(=O)CO5)n3)c2)CC1 [Compound 1070, N2-[3-(4-Ethoxycarbonylpiperazino)phenyl]-5-fluoro-N4-(3-oxo-2H,4H-5-pyrid[1,4]oxazin-6-yl)-2,4-pyrimidinediamine]",–,–,IC50 [3]: < 10 µM
